This passage reports IC50 results from patent US7049313B2, “ATM inhibitors” (Kudos Pharmaceuticals Ltd., priority 2002, dated 2006).

Some results are limits rather than exact numbers.

T1 sequence (Q13315 whole entry): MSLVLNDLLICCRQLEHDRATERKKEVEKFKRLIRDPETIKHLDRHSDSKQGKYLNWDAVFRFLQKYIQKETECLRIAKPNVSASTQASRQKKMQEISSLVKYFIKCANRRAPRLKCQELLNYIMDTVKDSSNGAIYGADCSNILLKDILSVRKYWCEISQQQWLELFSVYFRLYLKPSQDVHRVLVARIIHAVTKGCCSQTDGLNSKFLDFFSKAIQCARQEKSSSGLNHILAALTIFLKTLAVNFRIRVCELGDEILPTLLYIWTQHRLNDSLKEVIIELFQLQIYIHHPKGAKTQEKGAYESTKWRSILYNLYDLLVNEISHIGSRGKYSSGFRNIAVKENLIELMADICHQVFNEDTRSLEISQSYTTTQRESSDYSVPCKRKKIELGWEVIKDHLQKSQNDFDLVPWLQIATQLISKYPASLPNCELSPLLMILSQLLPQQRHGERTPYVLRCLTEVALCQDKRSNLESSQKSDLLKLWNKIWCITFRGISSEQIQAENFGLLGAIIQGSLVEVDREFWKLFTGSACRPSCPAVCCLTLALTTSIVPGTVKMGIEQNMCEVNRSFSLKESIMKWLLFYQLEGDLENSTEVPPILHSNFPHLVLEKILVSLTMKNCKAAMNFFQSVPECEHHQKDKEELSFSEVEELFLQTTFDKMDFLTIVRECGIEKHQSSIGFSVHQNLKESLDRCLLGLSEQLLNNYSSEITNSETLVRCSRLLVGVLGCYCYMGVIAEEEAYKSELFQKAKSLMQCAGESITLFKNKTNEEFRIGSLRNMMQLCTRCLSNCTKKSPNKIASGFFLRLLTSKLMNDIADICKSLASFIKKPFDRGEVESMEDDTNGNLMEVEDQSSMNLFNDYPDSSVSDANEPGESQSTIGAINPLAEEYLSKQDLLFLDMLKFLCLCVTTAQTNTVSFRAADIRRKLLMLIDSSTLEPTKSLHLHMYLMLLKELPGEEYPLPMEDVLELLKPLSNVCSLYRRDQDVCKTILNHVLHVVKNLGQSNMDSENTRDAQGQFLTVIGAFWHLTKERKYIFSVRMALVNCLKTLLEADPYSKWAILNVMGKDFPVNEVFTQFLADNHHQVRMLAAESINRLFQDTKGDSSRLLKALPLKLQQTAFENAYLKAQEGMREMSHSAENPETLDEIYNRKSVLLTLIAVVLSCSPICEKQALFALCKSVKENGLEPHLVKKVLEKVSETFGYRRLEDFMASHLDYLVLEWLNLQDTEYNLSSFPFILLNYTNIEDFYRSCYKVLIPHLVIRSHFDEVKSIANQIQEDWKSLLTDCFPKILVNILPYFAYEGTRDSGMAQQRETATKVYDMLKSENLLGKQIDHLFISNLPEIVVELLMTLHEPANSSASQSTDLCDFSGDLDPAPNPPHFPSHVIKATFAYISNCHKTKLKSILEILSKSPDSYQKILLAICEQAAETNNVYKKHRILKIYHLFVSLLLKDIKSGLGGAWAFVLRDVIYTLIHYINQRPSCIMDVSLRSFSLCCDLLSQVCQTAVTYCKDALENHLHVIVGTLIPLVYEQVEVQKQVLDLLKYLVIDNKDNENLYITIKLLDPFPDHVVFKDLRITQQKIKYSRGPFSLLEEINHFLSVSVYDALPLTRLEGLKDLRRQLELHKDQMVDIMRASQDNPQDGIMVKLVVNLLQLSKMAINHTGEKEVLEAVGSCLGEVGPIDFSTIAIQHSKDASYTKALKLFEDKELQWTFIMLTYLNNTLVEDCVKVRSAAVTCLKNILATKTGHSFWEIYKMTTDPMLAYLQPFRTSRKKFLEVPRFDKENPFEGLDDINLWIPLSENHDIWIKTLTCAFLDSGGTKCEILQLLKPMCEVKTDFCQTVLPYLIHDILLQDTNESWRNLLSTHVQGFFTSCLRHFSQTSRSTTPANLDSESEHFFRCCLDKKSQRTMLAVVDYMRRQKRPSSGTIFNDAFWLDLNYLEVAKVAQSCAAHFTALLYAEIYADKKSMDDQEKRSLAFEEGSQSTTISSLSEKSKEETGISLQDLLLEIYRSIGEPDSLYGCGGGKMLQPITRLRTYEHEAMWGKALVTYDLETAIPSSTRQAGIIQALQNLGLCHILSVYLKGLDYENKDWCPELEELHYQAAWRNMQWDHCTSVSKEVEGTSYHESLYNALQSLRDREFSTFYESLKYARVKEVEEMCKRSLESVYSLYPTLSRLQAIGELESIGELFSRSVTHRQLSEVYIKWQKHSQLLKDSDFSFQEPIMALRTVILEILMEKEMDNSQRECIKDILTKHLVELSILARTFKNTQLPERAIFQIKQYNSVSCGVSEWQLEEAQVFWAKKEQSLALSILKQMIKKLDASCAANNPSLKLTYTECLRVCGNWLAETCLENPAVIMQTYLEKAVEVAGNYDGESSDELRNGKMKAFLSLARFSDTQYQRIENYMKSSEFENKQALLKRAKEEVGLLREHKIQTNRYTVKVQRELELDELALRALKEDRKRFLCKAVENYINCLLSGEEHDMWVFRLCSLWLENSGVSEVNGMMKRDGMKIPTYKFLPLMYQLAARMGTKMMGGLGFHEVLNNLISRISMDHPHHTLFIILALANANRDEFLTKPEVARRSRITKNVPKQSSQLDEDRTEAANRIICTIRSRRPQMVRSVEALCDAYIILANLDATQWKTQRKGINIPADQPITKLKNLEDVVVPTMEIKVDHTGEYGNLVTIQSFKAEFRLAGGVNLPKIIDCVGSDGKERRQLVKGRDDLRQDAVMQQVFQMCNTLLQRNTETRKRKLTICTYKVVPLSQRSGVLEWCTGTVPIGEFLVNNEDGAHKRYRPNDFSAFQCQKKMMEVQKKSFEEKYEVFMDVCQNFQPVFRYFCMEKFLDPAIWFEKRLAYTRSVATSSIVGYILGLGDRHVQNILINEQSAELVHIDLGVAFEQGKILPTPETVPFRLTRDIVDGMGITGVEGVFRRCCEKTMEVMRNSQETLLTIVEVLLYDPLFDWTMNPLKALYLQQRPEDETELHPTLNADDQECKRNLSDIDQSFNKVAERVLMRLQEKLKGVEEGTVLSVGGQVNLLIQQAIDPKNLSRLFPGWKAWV

The first test concerns the target T1, ATM (Homo sapiens, UniProt Q13315).
T1 construct: ATM protein was immunoprecipitated from HeLa cell nuclear extract; endogenous in cells; host or cells: HeLa cell nuclear extract (immunoprecipitate)
The test is described as follows: In vitro ATM inhibition assay (phosphorylation of GSTp53N66 on serine 15). Format: biochemical.
Conditions: not given
Here is the method: In vitro ATM inhibition Assays
In order to assess the inhibitory action of the compounds against ATM in vitro, the following assay was used to determine IC50 values.
ATM protein was immunoprecipitated from HeLa cell nuclear extract using rabbit polyclonal anti-sera raised to the C-terminal ˜500 amino-acid residues of the human ATM protein. The immunoprecipitation was performed according to the methodology described by Banin, S. et al. (1998). 10 μl of immunoprecipitated ATM in Buffer C (50 mM Hepes, pH 7.4, 6 mM MgCl2, 150 mM NaCl, 0.1 mM sodium orthovanadate, 4 mM MnCl2, 0.1 mM dithiothreitol, 10% glycerol) was added to 32.5 μl of buffer C containing 1 μg of the ATM substrate GSTp53N66 in a V-bottomed 96 well polypropylene plate. The GSTp53N66 substrate is the amino terminal 66 amino acid residues of human wild type p53 fused to glutathione S-transferase. ATM phosphorylates p53 on the residue serine 15 (Banin, S. et al. (1998)). Varying concentrations of inhibitor were then added. […] After 10 minutes of incubation at 37° C., the reactions were initiated by the addition of 5 μl of 500 μM Na-ATP. After 1 hour with shaking at 37° C., 150 μl of phosphate buffered saline (PBS) was added to the reaction and the plate centrifuged at 1500 rpm for 10 minutes. 5 μl of the reaction was then transferred to a 96 well opaque white plate containing 45 μl of PBS to allow the GSTp53N66 substrate to bind to the plate wells. The plate was covered and incubated at room temperature for 1 hour with shaking before discarding the contents. The plate wells were washed twice by the addition of PBS prior to the addition of 3% (w/v) bovine serum albumin (BSA) in PBS. The plate was incubated at room temperature for 1 hour with shaking before discarding the contents and washing twice with PBS. To the wells, 50 μl of a 1:10,000 dilution of primary phosphoserine-15 antibody (Cell Signaling Technology, #9284L) in 3% BSA/PBS was added to detect the phosphorylation event on the serine 15 residue of p53 elicited by the ATM kinase. After 1 hour of incubation at room temperature with shaking, the wells were washed four times with PBS prior to the addition of an anti-rabbit HRP conjugated secondary antibody (Pierce, 31462) with shaking for 1 hour at room temperature. The wells were then washed four times with PBS before the addition of chemiluminescence reagent (NEN Renaissance, NEL105). The plate was then shaken briefly, covered with a transparent plate seal and transferred to a TopCount NXT for chemiluminescent counting. Counts per second, following a one second counting time, were recorded for each reaction.
The enzyme activity for each compound is then calculated using the following equation: […]
`O=C(NCC(F)(F)F)c1ccc2c(c1)Sc1cccc(-c3cc(=O)cc(N4CCOCC4)o3)c1S2` [Compound 148]: the half-maximal inhibitory concentration (IC50) is below 200 nM.
`O=C(NCC1CCCO1)c1ccc2c(c1)Sc1cccc(-c3cc(=O)cc(N4CCOCC4)o3)c1S2` (stereo not drawn) [Compound 149] came in with an IC50 below 200 nM.
Still for that read-out and setting: under `O=C(NCc1ccco1)c1ccc2c(c1)Sc1cccc(-c3cc(=O)cc(N4CCOCC4)o3)c1S2` [Compound 150] stands below 200 nM; under `O=C(NC1CCCCC1)c1ccc2c(c1)Sc1cccc(-c3cc(=O)cc(N4CCOCC4)o3)c1S2` [Compound 151], below 200 nM.
Compound `O=C(NCC1CC1)c1ccc2c(c1)Sc1cccc(-c3cc(=O)cc(N4CCOCC4)o3)c1S2` [Compound 152] yielded an IC50 below 200 nM.
Take `O=C(NC1CCC1)c1ccc2c(c1)Sc1cccc(-c3cc(=O)cc(N4CCOCC4)o3)c1S2` [Compound 153]: the half-inhibitory concentration (IC50) is below 200 nM.
On the same count and under the same terms, with `O=C(NCC1CCCCC1)c1ccc2c(c1)Sc1cccc(-c3cc(=O)cc(N4CCOCC4)o3)c1S2` [Compound 154] the figure was below 200 nM.
The compound `O=C(NC1CCCC1)c1ccc2c(c1)Sc1cccc(-c3cc(=O)cc(N4CCOCC4)o3)c1S2` [Compound 155] gave an IC50 below 200 nM.
On the same count and under the same terms, with `O=C(c1ccc2c(c1)Sc1cccc(-c3cc(=O)cc(N4CCOCC4)o3)c1S2)N1CCCC1` [Compound 156] the figure was below 200 nM.
On the same count and under the same terms, with `O=C(c1ccc2c(c1)Sc1cccc(-c3cc(=O)cc(N4CCOCC4)o3)c1S2)N1CCCCC1` [Compound 157] the figure was below 200 nM; with `CC1CN(C(=O)c2ccc3c(c2)Sc2cccc(-c4cc(=O)cc(N5CCOCC5)o4)c2S3)CC(C)O1` (stereo not drawn) [Compound 158], below 200 nM.
In turn, `C[C@@H]1CN(C(=O)c2ccc3c(c2)Sc2cccc(-c4cc(=O)cc(N5CCOCC5)o4)c2S3)C[C@H](C)O1` [Compound 159] displayed an IC50 below 200 nM.
For the compound `O=C(c1ccc2c(c1)Sc1cccc(-c3cc(=O)cc(N4CCOCC4)o3)c1S2)N1CCOCC1` [Compound 160], the IC50 was below 200 nM.
For `O=C(c1ccc2c(c1)Sc1cccc(-c3cc(=O)cc(N4CCOCC4)o3)c1S2)N1CCCCCC1` [Compound 161], the IC50 was below 200 nM.
`O=C(NNC(=O)c1ccc2c(c1)Sc1cccc(-c3cc(=O)cc(N4CCOCC4)o3)c1S2)c1ccccc1` [Compound 162] came in with a concentration for half-maximal inhibition (IC50) below 200 nM.
`COC[C@@H]1CCCN1NC(=O)c1ccc2c(c1)Sc1cccc(-c3cc(=O)cc(N4CCOCC4)o3)c1S2` [Compound 163]: the IC50 is below 200 nM.
Compound `CN1CCN(NC(=O)c2ccc3c(c2)Sc2cccc(-c4cc(=O)cc(N5CCOCC5)o4)c2S3)CC1` [Compound 164] returned an IC50 below 200 nM.
With `O=C(NN1CCOCC1)c1ccc2c(c1)Sc1cccc(-c3cc(=O)cc(N4CCOCC4)o3)c1S2` [Compound 165], the concentration for half-maximal inhibition (IC50) is below 200 nM.
As for `O=C(NCCN1CCCCC1)c1ccc2c(c1)Sc1cccc(-c3cc(=O)cc(N4CCOCC4)o3)c1S2` [Compound 166], the IC50 was below 200 nM.
`O=C(NCCN1CCCC1)c1ccc2c(c1)Sc1cccc(-c3cc(=O)cc(N4CCOCC4)o3)c1S2` [Compound 167] showed an IC50 below 200 nM.
`CN1CCCC1CCNC(=O)c1ccc2c(c1)Sc1cccc(-c3cc(=O)cc(N4CCOCC4)o3)c1S2` (stereo not drawn) [Compound 168] showed an IC50 below 200 nM.
For the compound `CN(C)c1ccc(CNC(=O)c2ccc3c(c2)Sc2cccc(-c4cc(=O)cc(N5CCOCC5)o4)c2S3)cc1` [Compound 169], the IC50 is below 200 nM.
The same measure, in the same setting: with `O=C(NCc1ccccn1)c1ccc2c(c1)Sc1cccc(-c3cc(=O)cc(N4CCOCC4)o3)c1S2` [Compound 170] the figure was below 200 nM; with `O=C(NCc1cccnc1)c1ccc2c(c1)Sc1cccc(-c3cc(=O)cc(N4CCOCC4)o3)c1S2` [Compound 171], below 200 nM; with `O=C(NCc1ccncc1)c1ccc2c(c1)Sc1cccc(-c3cc(=O)cc(N4CCOCC4)o3)c1S2` [Compound 172], below 200 nM.
Compound `O=C(NCCc1ccccn1)c1ccc2c(c1)Sc1cccc(-c3cc(=O)cc(N4CCOCC4)o3)c1S2` [Compound 173] had a half-inhibitory concentration (IC50) below 200 nM.
With `CN(CCc1ccccn1)C(=O)c1ccc2c(c1)Sc1cccc(-c3cc(=O)cc(N4CCOCC4)o3)c1S2` [Compound 174], the IC50 is below 200 nM.
Turning to `O=C(NCCc1cnc[nH]1)c1ccc2c(c1)Sc1cccc(-c3cc(=O)cc(N4CCOCC4)o3)c1S2` [Compound 176], the IC50 was below 200 nM.
With `O=C(NCCN1CCOCC1)c1ccc2c(c1)Sc1cccc(-c3cc(=O)cc(N4CCOCC4)o3)c1S2` [Compound 177], the IC50 was below 200 nM.
On to `O=C(NCCCN1CCOCC1)c1ccc2c(c1)Sc1cccc(-c3cc(=O)cc(N4CCOCC4)o3)c1S2` [Compound 178], for which the IC50 was below 200 nM.
In turn, `O=C(NCCN1CCN(Cc2ccccc2)CC1)c1ccc2c(c1)Sc1cccc(-c3cc(=O)cc(N4CCOCC4)o3)c1S2` [Compound 179] returned an IC50 below 200 nM.
`CC(C)(C)OC(=O)N1CCN(CCNC(=O)c2ccc3c(c2)Sc2cccc(-c4cc(=O)cc(N5CCOCC5)o4)c2S3)CC1` [Compound 180] had an IC50 below 200 nM.
Compound `CCN(CC)CCNC(=O)c1ccc2c(c1)Sc1cccc(-c3cc(=O)cc(N4CCOCC4)o3)c1S2` [Compound 181] yielded an IC50 below 200 nM.
Compound `CCN(CC)CCCNC(=O)c1ccc2c(c1)Sc1cccc(-c3cc(=O)cc(N4CCOCC4)o3)c1S2` [Compound 182] gave an IC50 below 200 nM.

A further test relates to HIV-1 HXB2 wild type. The experiment in a line: HIV-1 4-day replication assay, wild type strain (p24 antigen ELISA). It is filed as cell-based. The conditions noted are these: Human immunodeficiency virus 1, HXB2, 96 h; C8166 T-cells; 4-day replication; p24. The procedure: (§1) HIV-1 4-day Replication Assays
(§2) C8166 T-cells were washed and infected with HIV-1 (strains HXB2wt and HXB2AZTres, RT amino acid changes 67N, 70R, 215F, 219Q) at low multiplicity of infection for one hour at room temperature. The cells were then washed and distributed (5×10^4 cells/well) in triplicate into the wells of 96-well cell culture plates containing different concentrations of inhibitors. The plates were then incubated at 37° C. for 4 days. The cell-free culture fluid was then harvested and assayed for levels of p24 viral antigen using a commercially available ELISA kit (Murex), according to the manufacturers' instructions. Cytotoxicity was evaluated by distributing (5×10^4 cells/well) uninfected C8166 T-cells into triplicate wells of 96-well cell culture plates containing different concentrations of inhibitor and incubating the plates at 37° C. After 4 days, 25 μl of XTT, which is metabolised by viable but not dead cells was added and the plates incubated for a further 3 hours at 37° C. Finally, the absorbance was read at a wavelength of 450 nm.
In the case of `Cc1cn([C@H]2C[C@H](N=[N+]=[N-])[C@@H](CO)O2)c(=O)[nH]c1=O` [AZT, 3′-azido-3′-deoxythymidine, reference compound], inhibition was half-maximal at 0.002 µM (IC50).

Another test concerns HIV-1 HXB2 AZT resistant. The test is described as follows: microbe, parasite or virus in culture. It is filed as cell-based. The conditions noted are these: Human immunodeficiency virus 1, HXB2, C8166, 96 h, read-out: HIV-1 HXB2 (IC50 μM) AZT resistant. Here is the method:
as §1, §2
As for `Cc1cn([C@H]2C[C@H](N=[N+]=[N-])[C@@H](CO)O2)c(=O)[nH]c1=O` [AZT, 3′-azido-3′-deoxythymidine, reference compound], the IC50 worked out at 0.05 µM.
